Measured values reported in PubChem BioAssay AID1259407 (Chemical Carcinogenesis Research Information System (CCRIS), 2018).
Activity calls are given as the source filed them. How the calls were made is not given here.

System: CCRIS mutagenicity, Ames/micronucleus/aberration tests
Assay: CCRIS mutagenicity studies
[1] = Test System: AMES SALMONELLA TYPHIMURIUM, Strain/Indicator: TA98, Metabolic Activation: NONE, Method: PREINCUBATION
[2] = Test System: AMES SALMONELLA TYPHIMURIUM, Strain/Indicator: TA98, Metabolic Activation: NONE, Method: STANDARD PLATE
[3] = Test System: AMES SALMONELLA TYPHIMURIUM, Strain/Indicator: TA98, Metabolic Activation: RAT LIVER S-9, AROCLOR 1254, Method: STANDARD PLATE
[4] = Test System: AMES SALMONELLA TYPHIMURIUM, Strain/Indicator: TA100, Metabolic Activation: NONE, Method: STANDARD PLATE
[5] = Test System: AMES SALMONELLA TYPHIMURIUM, Strain/Indicator: TA100, Metabolic Activation: RAT LIVER S-9, AROCLOR 1254, Method: STANDARD PLATE
[6] = Test System: AMES SALMONELLA TYPHIMURIUM, Strain/Indicator: TA1535, Metabolic Activation: NONE, Method: PREINCUBATION
[7] = Test System: AMES SALMONELLA TYPHIMURIUM, Strain/Indicator: TA1537, Metabolic Activation: NONE, Method: PREINCUBATION

CC(C)=CCC/C(C)=C/C=O
mutagenic call (Test System: AMES SALMONELLA TYPHIMURIUM, Strain/Indicator: TA97A, Metabolic Activation: NONE, Method: STANDARD PLATE): inactive; negative | mutagenic call (Test System: AMES SALMONELLA TYPHIMURIUM, Strain/Indicator: TA97A, Metabolic Activation: RAT LIVER S-9, AROCLOR 1254, Method: STANDARD PLATE): inactive; negative | mutagenic call (Test System: AMES SALMONELLA TYPHIMURIUM, Strain/Indicator: TA98, Metabolic Activation: HAMSTER, LIVER, S-9, AROCLOR 1254 (10%), Method: PREINCUBATION): inactive; negative | mutagenic call [1]: inactive; negative | mutagenic call [2]: inactive; negative | mutagenic call [3]: inactive; negative | mutagenic call (Test System: AMES SALMONELLA TYPHIMURIUM, Strain/Indicator: TA98, Metabolic Activation: RAT, LIVER, S-9, AROCLOR 1254 (10%), Method: PREINCUBATION): inactive; negative | mutagenic call (Test System: AMES SALMONELLA TYPHIMURIUM, Strain/Indicator: TA100, Metabolic Activation: HAMSTER, LIVER, S-9, AROCLOR 1254 (10%), Method: PREINCUBATION): inactive; negative | mutagenic call (Test System: AMES SALMONELLA TYPHIMURIUM, Strain/Indicator: TA100, Metabolic Activation: NONE, Method: PREINCUBATION): inactive; negative | mutagenic call [4]: inactive; negative | mutagenic call [5]: inactive; negative | mutagenic call (Test System: AMES SALMONELLA TYPHIMURIUM, Strain/Indicator: TA100, Metabolic Activation: RAT, LIVER, S-9, AROCLOR 1254 (10%), Method: PREINCUBATION): inactive; negative | mutagenic call (Test System: AMES SALMONELLA TYPHIMURIUM, Strain/Indicator: TA102, Metabolic Activation: NONE, Method: STANDARD PLATE): inactive; negative | mutagenic call (Test System: AMES SALMONELLA TYPHIMURIUM, Strain/Indicator: TA102, Metabolic Activation: RAT LIVER S-9, AROCLOR 1254, Method: STANDARD PLATE): inactive; negative | mutagenic call (Test System: AMES SALMONELLA TYPHIMURIUM, Strain/Indicator: TA1535, Metabolic Activation: HAMSTER, LIVER, S-9, AROCLOR 1254 (10%), Method: PREINCUBATION): inactive; negative | mutagenic call [6]: inactive; negative | mutagenic call (Test System: AMES SALMONELLA TYPHIMURIUM, Strain/Indicator: TA1535, Metabolic Activation: RAT, LIVER, S-9, AROCLOR 1254 (10%), Method: PREINCUBATION): inactive; negative | mutagenic call (Test System: AMES SALMONELLA TYPHIMURIUM, Strain/Indicator: TA1537, Metabolic Activation: HAMSTER, LIVER, S-9, AROCLOR 1254 (10%), Method: PREINCUBATION): inactive; negative | mutagenic call [7]: inactive; negative | mutagenic call (Test System: AMES SALMONELLA TYPHIMURIUM, Strain/Indicator: TA1537, Metabolic Activation: RAT, LIVER, S-9, AROCLOR 1254 (10%), Method: PREINCUBATION): inactive; negative

C[n+]1ccccc1-c1cccc[n+]1C
mutagenic call (Test System: AMES SALMONELLA TYPHIMURIUM, Strain/Indicator: TA97, Metabolic Activation: RAT, LIVER, S-9, PHENOBARBITAL, Method: STANDARD PLATE): active; positive | mutagenic call (Test System: AMES SALMONELLA TYPHIMURIUM, Strain/Indicator: TA98, Metabolic Activation: RAT, LIVER, S-9, PHENOBARBITAL, Method: STANDARD PLATE): active; positive | mutagenic call (Test System: AMES SALMONELLA TYPHIMURIUM, Strain/Indicator: TA100, Metabolic Activation: RAT, LIVER, S-9, PHENOBARBITAL, Method: STANDARD PLATE): active; positive | mutagenic call (Test System: AMES SALMONELLA TYPHIMURIUM, Strain/Indicator: TA1535, Metabolic Activation: RAT, LIVER, S-9, PHENOBARBITAL, Method: STANDARD PLATE): inactive; negative | mutagenic call (Test System: AMES SALMONELLA TYPHIMURIUM, Strain/Indicator: TA1537, Metabolic Activation: RAT, LIVER, S-9, PHENOBARBITAL, Method: STANDARD PLATE): inactive; negative | mutagenic call (Test System: AMES SALMONELLA TYPHIMURIUM, Strain/Indicator: TA1538, Metabolic Activation: RAT, LIVER, S-9, PHENOBARBITAL, Method: STANDARD PLATE): inactive; negative

COc1cc(O)c2c(=O)oc3cc(O)cc(C)c3c2c1
mutagenic call [2]: inactive; negative | mutagenic call [3]: inactive; negative | mutagenic call (Test System: AMES SALMONELLA TYPHIMURIUM, Strain/Indicator: TA98, Metabolic Activation: RAT, LIVER, S-9, AROCLOR 1254, Method: STANDARD PLATE): inactive; negative | mutagenic call [4]: inactive; negative | mutagenic call [5]: inactive; negative | mutagenic call (Test System: AMES SALMONELLA TYPHIMURIUM, Strain/Indicator: TA100, Metabolic Activation: RAT, LIVER, S-9, AROCLOR 1254, Method: STANDARD PLATE): inactive; negative | mutagenic call (Test System: Ames Salmonella typhimurium, Strain/Indicator: TA97, Metabolic Activation: None, Method: Standard plate): inactive; negative. nitrosation did not increase mutagenicity | mutagenic call (Test System: Ames Salmonella typhimurium, Strain/Indicator: TA97, Metabolic Activation: Rat, Liver, S-9, Aroclor 1254 (10%), Method: Standard plate): inactive; negative. nitrosation did not increase mutagenicity | mutagenic call (Test System: Ames Salmonella typhimurium, Strain/Indicator: TA102, Metabolic Activation: None, Method: Standard plate): inactive; negative. nitrosation did not increase mutagenicity | mutagenic call (Test System: Ames Salmonella typhimurium, Strain/Indicator: TA102, Metabolic Activation: Rat, Liver, S-9, Aroclor 1254 (10%), Method: Standard plate): inactive; negative. nitrosation did not increase mutagenicity | mutagenic call (Test System: Ames Salmonella typhimurium, Strain/Indicator: TA104, Metabolic Activation: None, Method: Standard plate): inactive; negative. nitrosation did not increase mutagenicity | mutagenic call (Test System: Ames Salmonella typhimurium, Strain/Indicator: TA104, Metabolic Activation: Rat, Liver, S-9, Aroclor 1254 (10%), Method: Standard plate): inactive; negative. nitrosation did not increase mutagenicity | mutagenic call (Test System: E. COLI, Strain/Indicator: ND-160, Metabolic Activation: NONE, Method: STANDARD PLATE): active; positive

Oc1c(O)c(Cl)c(Cl)c(Cl)c1Cl
mutagenic call (Test System: CHINESE HAMSTER V-79, Strain/Indicator: V-79/6-THIOGUANINE (HGPRT), Metabolic Activation: NONE, Method: SUSPENSION/PLATE): inactive; negative | mutagenic call (Test System: CHINESE HAMSTER V-79, Strain/Indicator: V-79/6-THIOGUANINE, Metabolic Activation: NONE, Method: STANDARD PLATE): inactive; negative | mutagenic call (Test System: CHINESE HAMSTER V-79, Strain/Indicator: V-79/6-THIOGUANINE, Metabolic Activation: PRIMARY RAT HEPATOCYTES, Method: STANDARD PLATE): inactive; negative | mutagenic call (Test System: CHINESE HAMSTER V-79, Strain/Indicator: V-79/OUABAIN, Metabolic Activation: NONE, Method: SUSPENSION/PLATE): inactive; negative

Cn1c([N+](=O)[O-])nc2ncc(-c3ccccc3)cc21
mutagenic call (Test System: AMES SALMONELLA TYPHIMURIUM, Strain/Indicator: TA98(1,8-DNP6), Metabolic Activation: NONE, Method: PREINCUBATION): active; positive | mutagenic call (Test System: AMES SALMONELLA TYPHIMURIUM, Strain/Indicator: TA98(NR), Metabolic Activation: NONE, Method: PREINCUBATION): active; positive | mutagenic call [1]: active; positive | mutagenic call (Test System: AMES SALMONELLA TYPHIMURIUM, Strain/Indicator: YG1024, Metabolic Activation: NONE, Method: PREINCUBATION): active; positive

Nc1ccc2cc3ccccc3nc2c1
mutagenic call [6]: inactive; negative | mutagenic call (Test System: AMES SALMONELLA TYPHIMURIUM, Strain/Indicator: TA1535, Metabolic Activation: RAT, LIVER, S-9, TETRACHLOROBIPHENYL, Method: PREINCUBATION): active; positive | mutagenic call [7]: active; positive | mutagenic call (Test System: AMES SALMONELLA TYPHIMURIUM, Strain/Indicator: TA1537, Metabolic Activation: RAT, LIVER, S-9, TETRACHLOROBIPHENYL, Method: PREINCUBATION): active; positive | mutagenic call (Test System: AMES SALMONELLA TYPHIMURIUM, Strain/Indicator: TA1538, Metabolic Activation: NONE, Method: PREINCUBATION): active; positive | mutagenic call (Test System: AMES SALMONELLA TYPHIMURIUM, Strain/Indicator: TA1538, Metabolic Activation: RAT, LIVER, S-9, TETRACHLOROBIPHENYL, Method: PREINCUBATION): active; positive | mutagenic call (Test System: AMES SALMONELLA TYPHIMURIUM, Strain/Indicator: TA1975, Metabolic Activation: RAT, LIVER, S-9, TETRACHLOROBIPHENYL, Method: PREINCUBATION): inactive; negative | mutagenic call (Test System: AMES SALMONELLA TYPHIMURIUM, Strain/Indicator: TA1977, Metabolic Activation: NONE, Method: PREINCUBATION): active; positive | mutagenic call (Test System: AMES SALMONELLA TYPHIMURIUM, Strain/Indicator: TA1977, Metabolic Activation: RAT, LIVER, S-9, TETRACHLOROBIPHENYL, Method: PREINCUBATION): active; positive | mutagenic call (Test System: AMES SALMONELLA TYPHIMURIUM, Strain/Indicator: TA1978, Metabolic Activation: RAT, LIVER, S-9, TETRACHLOROBIPHENYL, Method: PREINCUBATION): active; positive
